Test results: patent EP4568957B1, “SUBSTITUTED PHENYL OXOOXAZOLYL PIPERIDINE DIONE COMPOUNDS” (Bristol-Myers Squibb Company, priority 2023, dated 2025)
“And” between values parts separate entries of the source, which are not always exact repeats. Equal entries are not always repeated.

Columns and labels:
Format in all cases: cell-based
[1] = target: T1, IKZF1 Ikaros (Homo sapiens, UniProt Q13422+Q96SW2); assay: Jurkat Cellular Degradation Assay; parameters: fluorescently labelled antibodies against Helios, Ikaros and Aiolos; endogenous in cells; host or cells: Jurkat cells; conditions: Jurkat cells, 24 h; for DC50: 50% reduction of protein vs DMSO alone; for IKZF1 Ikaros max % deg. observed: 100% = complete degradation
T1 sequence (Q13422 whole entry): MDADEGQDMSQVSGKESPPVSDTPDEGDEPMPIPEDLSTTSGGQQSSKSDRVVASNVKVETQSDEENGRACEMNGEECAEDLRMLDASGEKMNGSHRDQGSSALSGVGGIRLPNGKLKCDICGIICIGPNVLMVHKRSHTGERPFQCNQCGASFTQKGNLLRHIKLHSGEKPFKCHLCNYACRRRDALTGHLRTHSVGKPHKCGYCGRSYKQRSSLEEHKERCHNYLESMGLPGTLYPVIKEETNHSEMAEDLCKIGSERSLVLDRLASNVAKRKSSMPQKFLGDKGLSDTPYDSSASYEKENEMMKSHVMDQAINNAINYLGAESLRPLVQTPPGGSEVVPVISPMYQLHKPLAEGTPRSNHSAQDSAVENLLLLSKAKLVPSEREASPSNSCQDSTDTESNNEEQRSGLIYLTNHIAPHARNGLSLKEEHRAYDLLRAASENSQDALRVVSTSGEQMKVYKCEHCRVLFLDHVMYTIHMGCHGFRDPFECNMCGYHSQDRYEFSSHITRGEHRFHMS
T1 sequence (Q96SW2 whole entry): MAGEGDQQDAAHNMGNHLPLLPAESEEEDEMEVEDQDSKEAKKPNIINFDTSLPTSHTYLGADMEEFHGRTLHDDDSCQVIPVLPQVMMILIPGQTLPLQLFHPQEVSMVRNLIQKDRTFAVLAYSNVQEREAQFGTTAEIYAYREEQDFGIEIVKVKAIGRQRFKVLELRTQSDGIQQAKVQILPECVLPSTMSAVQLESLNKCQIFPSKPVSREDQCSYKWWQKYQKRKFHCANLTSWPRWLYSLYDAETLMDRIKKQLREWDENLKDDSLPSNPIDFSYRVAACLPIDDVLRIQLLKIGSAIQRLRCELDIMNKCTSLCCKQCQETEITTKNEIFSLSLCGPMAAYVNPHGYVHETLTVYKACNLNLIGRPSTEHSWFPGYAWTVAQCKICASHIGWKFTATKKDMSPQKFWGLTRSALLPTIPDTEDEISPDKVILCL
T1 sequence (Q16531 whole entry partner): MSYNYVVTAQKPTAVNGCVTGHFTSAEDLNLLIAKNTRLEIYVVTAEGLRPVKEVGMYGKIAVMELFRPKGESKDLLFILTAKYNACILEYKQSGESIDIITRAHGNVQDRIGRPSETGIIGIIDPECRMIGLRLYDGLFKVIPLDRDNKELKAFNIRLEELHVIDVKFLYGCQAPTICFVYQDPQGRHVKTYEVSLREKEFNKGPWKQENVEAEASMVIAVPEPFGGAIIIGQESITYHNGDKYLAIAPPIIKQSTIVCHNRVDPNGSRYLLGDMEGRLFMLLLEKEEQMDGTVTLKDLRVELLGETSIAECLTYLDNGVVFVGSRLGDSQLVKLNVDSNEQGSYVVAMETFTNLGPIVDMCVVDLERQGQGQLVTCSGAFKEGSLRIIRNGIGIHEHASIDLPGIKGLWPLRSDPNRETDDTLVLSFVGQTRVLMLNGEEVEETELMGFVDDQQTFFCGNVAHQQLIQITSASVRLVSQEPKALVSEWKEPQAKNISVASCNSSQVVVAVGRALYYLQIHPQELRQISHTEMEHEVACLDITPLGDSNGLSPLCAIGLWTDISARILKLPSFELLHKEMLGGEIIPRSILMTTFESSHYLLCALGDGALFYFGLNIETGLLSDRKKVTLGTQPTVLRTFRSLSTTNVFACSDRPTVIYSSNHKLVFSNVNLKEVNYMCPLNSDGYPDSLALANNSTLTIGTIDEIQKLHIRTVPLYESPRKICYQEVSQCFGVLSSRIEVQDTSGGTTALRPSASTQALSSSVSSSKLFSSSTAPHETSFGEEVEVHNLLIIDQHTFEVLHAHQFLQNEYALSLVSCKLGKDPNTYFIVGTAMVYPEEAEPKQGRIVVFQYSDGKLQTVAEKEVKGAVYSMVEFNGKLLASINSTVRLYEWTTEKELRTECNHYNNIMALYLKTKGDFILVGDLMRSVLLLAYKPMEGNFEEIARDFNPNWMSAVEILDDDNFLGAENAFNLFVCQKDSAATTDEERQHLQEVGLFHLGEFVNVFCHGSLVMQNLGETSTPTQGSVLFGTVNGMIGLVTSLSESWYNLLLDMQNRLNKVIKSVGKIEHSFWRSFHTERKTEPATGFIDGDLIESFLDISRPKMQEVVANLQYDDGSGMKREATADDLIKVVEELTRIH
Description: (§1) Jurkat cells were plated at 80,000 cells/well in 40 µL RPMI + 10% FBS in a 384-well cell culture plate prior to using acoustic dispensing technology for adding a compound of interest. Cell cultures were incubated for 24 h at 37 °C and 5% CO2. In order to facilitate analysis, cell cultures were spun down at 200 rpm for 5 min and the supernatant was discarded. After shaking the plate to dislodge the cell pellet, cells were resuspended in 50 µL of Fixation Buffer (eBioscience FoxP3 buffer set 00-5523-00) for 60 min at room temperature. After centrifuging and discarding the supernatant, cells were permeabilized with 50 µL of Permeabilization buffer (eBioscience FoxP3 buffer set 00-5523-00) for 10 min at room temperature. Following permeabilization, cells were spun down and the supernatant was replaced with 20 µL fluorescently labelled antibodies against Helios, Ikaros and Aiolos or corresponding Isotype controls in 1× Permeabilization buffer (Ikaros-Alexa488 [Biolegend, Cat #368408, 1:50], Helios-PE [CST, Cat #29360, 1:50]. Aiolos-Alexa647 [Biolegend, Cat #371106 Biolegend, 1:25]) and staining reactions were incubated for 1 h at room temperature while protected from light. Subsequently, 30 µL of 1× Permeabilization buffer was added prior to centrifuging the cells and discarding the supernatant. Stained cells were resuspended in 25 µL of flow cytometry staining buffer [PBS + 0.2% bovine serum albumin (BSA)] and analyzed using an Intellicyt Ique Plus flow cytometer. TABLE A-1

[2] = target: T2, IKZF2 Helios (Homo sapiens, UniProt Q96SW2+Q9UKS7); assay: Jurkat Cellular Degradation Assay; parameters: fluorescently labelled antibodies against Helios, Ikaros and Aiolos; endogenous in cells; host or cells: Jurkat cells; conditions: for DC50: 50% reduction of protein vs DMSO alone; for IKZF2** Helios max % deg. observed: Table E summary, Jurkat Cellular Degradation Assay (A-1)
T2 sequence (Q9UKS7 whole entry): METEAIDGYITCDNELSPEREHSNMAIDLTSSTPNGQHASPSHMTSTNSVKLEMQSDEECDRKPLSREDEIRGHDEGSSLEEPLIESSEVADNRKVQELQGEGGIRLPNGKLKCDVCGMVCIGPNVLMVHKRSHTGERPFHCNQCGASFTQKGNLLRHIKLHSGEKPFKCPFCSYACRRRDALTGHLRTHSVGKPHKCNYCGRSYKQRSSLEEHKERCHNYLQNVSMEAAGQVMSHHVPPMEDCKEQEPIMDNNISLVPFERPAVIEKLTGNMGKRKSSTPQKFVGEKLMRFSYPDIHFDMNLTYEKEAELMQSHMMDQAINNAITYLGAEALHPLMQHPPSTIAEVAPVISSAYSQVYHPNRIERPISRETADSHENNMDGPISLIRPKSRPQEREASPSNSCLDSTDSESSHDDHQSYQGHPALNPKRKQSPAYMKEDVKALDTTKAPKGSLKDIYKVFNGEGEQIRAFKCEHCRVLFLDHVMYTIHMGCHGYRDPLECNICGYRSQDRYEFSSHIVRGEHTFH
T2 sequence (Q96SW2 whole entry): as the sequence (Q96SW2 whole entry) above
T2 sequence (Q16531 whole entry partner): as the sequence (Q16531 whole entry partner) above
Description: as §1

[3] = target: T3, IKZF3 Aiolos (Homo sapiens, UniProt Q96SW2+Q9UKT9); assay: Jurkat Cellular Degradation Assay; parameters: fluorescently labelled antibodies against Helios, Ikaros and Aiolos; endogenous in cells; host or cells: Jurkat cells; conditions: Jurkat cells, 24 h; for DC50: 50% reduction of protein vs DMSO alone; for IKZF3 Aiolos max % deg. observed: 100% = complete degradation
T3 sequence (Q9UKT9 whole entry): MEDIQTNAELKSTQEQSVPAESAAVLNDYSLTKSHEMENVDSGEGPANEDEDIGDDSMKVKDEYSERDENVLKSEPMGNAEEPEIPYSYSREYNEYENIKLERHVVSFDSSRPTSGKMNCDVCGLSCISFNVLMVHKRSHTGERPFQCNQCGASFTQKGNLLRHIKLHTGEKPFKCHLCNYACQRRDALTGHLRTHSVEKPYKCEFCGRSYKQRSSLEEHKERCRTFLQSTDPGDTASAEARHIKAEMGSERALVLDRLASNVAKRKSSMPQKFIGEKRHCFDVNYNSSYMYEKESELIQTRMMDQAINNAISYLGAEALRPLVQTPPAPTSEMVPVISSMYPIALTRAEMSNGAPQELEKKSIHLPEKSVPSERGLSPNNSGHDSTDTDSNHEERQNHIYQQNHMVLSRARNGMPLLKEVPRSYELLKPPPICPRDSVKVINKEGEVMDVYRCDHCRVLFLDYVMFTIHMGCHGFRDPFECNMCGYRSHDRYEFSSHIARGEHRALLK
T3 sequence (Q96SW2 whole entry): as the sequence (Q96SW2 whole entry) above
T3 sequence (Q16531 whole entry partner): as the sequence (Q16531 whole entry partner) above
Description: as §1

[4] = target: T2, IKZF2 Helios; assay: Human Regulatory T Cell Degradation Assay; parameters: endogenous in cells; host or cells: primary human CD4+CD127lowCD25+ Treg cells from healthy leukopaks; conditions: human regulatory T cells, 20 hours; for DC50: vs DMSO alone
Description: Cryopreserved human regulatory T cells were thawed in RPMI + 10%FBS + 20 ng/mL IL-2. After being spun at 1200 rpm for 5 mins, the cells were resuspended in RPMI + 10% FBS+ 20 ng/mL and rested at 37 °C with 5% CO2 for 3 hours. The cells were then plated at 40,000 cells/well in 40 µL RPMI + 10% FBS + 20 ng/mL human IL-2 in a 384 well cell culture plate prior to using acoustic dispensing technology (ECHO 555) for adding compounds of interest. Cell cultures were incubated for 20 hours at 37 °C and 5% CO2. In order to facilitate analysis, cell cultures were spun down at 1200 rpm for 5 minutes and the supernatant was discarded using an EL406 plate washer. After washing three times with 70 µL PBS, cell pellets were resuspended in 50 µL of near IR viability staining solution (Life Technologies, Cat# L34975) and incubated for 30 minutes on ice protected from light. Cells were washed three times with 70 µL PBS + 0.5% BSA using an EL406 plate washer. After shaking the plate to dislodge the cell pellet, cells were resuspended in 50 µL of Fixation Buffer (eBioScience FoxP3 buffer set 00-5523-00) for 60 minutes at room temperature. After centrifuging and discarding the supernatant, cells were permeabilized with 50 µL of permeabilization buffer (eBioScience FoxP3 buffer set 00-5523-00) for 10 minutes at room temperature. Following permeabilization, cells were spun down and the supernatant was replaced with 30 µL fluorescently labelled antibodies against the intracellular targets Helios (Helios-APC [BioLegend, Cat# 137222, 1:50]), Aiolos, and Ikaros lx Permeabilization buffer and staining reactions were incubated for 1 hour at room temperature; protected from light. Subsequently, 30 µL of lx Permeabilization buffer was added prior to centrifuging the cells and discarding the supernatant. Stained cells were resuspended in 30 µL of flow cytometry staining buffer (PBS + 0.5%BSA) and analyzed using an Intellicyt Ique Plus flow cytometer. TABLE B-1

[5] = target: T1, IKZF1 Ikaros; assay: Human Regulatory T Cell Degradation Assay; parameters: Foxp3-BV421, HELIOS-PE-Cy7, EOS-PE, IKAROS-PECF594, AIOLOS-AF647; endogenous in cells; host or cells: human PBMC from healthy donors (CD8+ T cells gated by flow cytometry); conditions: human regulatory T cells, 20 hours; for DC50: vs DMSO alone
[6] = target: T4, IKZF4 Eos (Homo sapiens, UniProt Q96SW2+Q9H2S9); assay: Human Regulatory T Cell Degradation Assay; conditions: human regulatory T cells, 20 hours; for DC50: vs DMSO alone
T4 construct: endogenous in cells; host or cells: primary human CD4+CD127lowCD25+ Treg cells from healthy leukopaks
T4 sequence (Q9H2S9 whole entry): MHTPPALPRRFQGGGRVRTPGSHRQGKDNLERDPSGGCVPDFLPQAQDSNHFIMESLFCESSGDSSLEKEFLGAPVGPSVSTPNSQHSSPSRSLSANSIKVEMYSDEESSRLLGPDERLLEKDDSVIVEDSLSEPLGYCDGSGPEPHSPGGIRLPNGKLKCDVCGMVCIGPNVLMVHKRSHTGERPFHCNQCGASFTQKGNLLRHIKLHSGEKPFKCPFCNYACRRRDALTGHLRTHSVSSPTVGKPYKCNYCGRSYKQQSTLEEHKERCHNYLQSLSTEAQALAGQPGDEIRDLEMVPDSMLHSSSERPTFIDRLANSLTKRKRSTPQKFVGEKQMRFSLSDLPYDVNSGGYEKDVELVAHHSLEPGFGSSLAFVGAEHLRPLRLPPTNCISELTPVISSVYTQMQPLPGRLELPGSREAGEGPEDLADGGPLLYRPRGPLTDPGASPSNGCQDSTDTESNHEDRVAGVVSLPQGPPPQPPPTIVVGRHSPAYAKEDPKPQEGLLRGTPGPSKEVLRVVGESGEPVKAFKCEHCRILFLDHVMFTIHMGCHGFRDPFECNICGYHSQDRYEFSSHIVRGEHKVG
T4 sequence (Q96SW2 whole entry): as the sequence (Q96SW2 whole entry) above
T4 sequence (Q16531 whole entry partner): as the sequence (Q16531 whole entry partner) above

[7] = target: T3, IKZF3 Aiolos; assay: Human Regulatory T Cell Degradation Assay; parameters: Foxp3-BV421, HELIOS-PE-Cy7, EOS-PE, IKAROS-PECF594, AIOLOS-AF647; endogenous in cells; host or cells: human PBMC from healthy donors (CD8+ T cells gated by flow cytometry); conditions: human regulatory T cells, 20 hours; for DC50: vs DMSO alone

Row | Compound | DC50 [1] [µM] | DC50 ([2]; Jurkat cells, 24 h) [µM] | IKZF2** Helios max % deg. observed [2] [%] | DC50 [3] [µM] | IKZF2 Helios max % deg. observed [4] [%] | DC50 [4] [µM] | IKZF1 Ikaros max % deg. observed [5] [%] | DC50 [5] [µM] | IKZF4 Eos max % deg. observed [6] [%] | DC50 [6] [µM] | IKZF3 Aiolos max % deg. observed [7] [%] | DC50 [7] [µM] | IKZF1 Ikaros max % deg. observed [1] | IKZF2 Helios max % deg. observed ([2]; Jurkat cells, 24 h, 100% = complete degradation) [%] | IKZF3 Aiolos max % deg. observed [3]
1 | CO[C@H]1C[C@H](Oc2c(C)cc(-c3ccc(-c4cn(C5CCC(=O)NC5=O)c(=O)o4)c(F)c3)nc2N)C1 (relative stereo) [Example 2, trans 3-(5-(4-(6-amino-5-(3-methoxycyclobutoxy)-4-methylpyridin-2-yl)-2-fluorophenyl)-2-oxooxazol-3(2H)-yl)piperidine-2,6-dione] | 4.38 | 0.037 | 92 | 2.32 | 98 | 0.071 | 56 | 0.95 | 62 | 0.193 | 25 | > 100 |  |  | 
2 | Cc1cc(-c2ccc(-c3cn(C4CCC(=O)NC4=O)c(=O)o3)c(F)c2)nc(N)c1COC1CCOCC1 (stereo not drawn) [Example 5, 3-(5-(4-(6-Amino-4-methyl-5-(((tetrahydro-2H-pyran-4-yl)oxy)methyl)pyridin-2-yl)-2-fluorophenyl)-2-oxooxazol-3(2H)-yl)piperidine-2,6-dione] | 7.9 | 0.05 | 92 | > 10 | 98 | 0.046 | 52 | 6.5 | 67 | 0.575 | 29 | > 10 | 51% | 92 | 38%
3 | COC1CCN(Cc2ccc(-c3ccc(-c4cn(C5CCC(=O)NC5=O)c(=O)o4)c(F)c3)nc2N)CC1 (stereo not drawn) [Example 4, 3-(5-(4-(6-amino-5-((4-methoxypiperidin-1-yl)methyl)pyridin-2-yl)-2-fluorophenyl)-2-oxooxazol-3(2H)-yl)piperidine-2,6-dione] | 1.2 | 0.034 | 91 | 3.01 | 98 | 0.059 | 67 | 3.79 | 62 | 0.203 | 35 | > 10 | 69% |  | 61%
4 | Cc1cc(-c2ccc(-c3cn(C4CCC(=O)NC4=O)c(=O)o3)c(F)c2)nc(N)c1NCC1CCOCC1 (stereo not drawn) [Example 3, 3-(5-(4-(6-amino-4-methyl-5-(((tetrahydro-2H-pyran-4-yl)methyl)amino)pyridin-2-yl)-2-fluorophenyl)-2-oxooxazol-3(2H)-yl)piperidine-2,6-dione] | 5.6 | 0.036 | 92 | 9.49 | 98 | 0.051 | 58 | 6.47 | 59 | 0.141 | 25 | > 10 | 64% and 57% |  | 48% and 54%
5 | O=C1CCC(n2cc(-c3ccccc3)oc2=O)C(=O)N1 (stereo not drawn) [Comparative Compound A, 3-(2-oxo-5-phenyloxazol-3(2H)-yl)piperidine-2,6-dione, reference compound] | 1.52 | > 10 | 27 | > 10 |  |  |  |  |  |  |  |  | 70% |  | 52%
6 | O=C1CCC(n2cc(-c3ccc(Br)cc3F)oc2=O)C(=O)N1 (stereo not drawn) [Comparative Compound B, 3-(5-(4-bromo-2-fluorophenyl)-2-oxooxazol-3(2H)-yl)piperidine-2,6-dione, reference compound] | > 10 | > 10 | 11 | > 10 |  |  |  |  |  |  |  |  | 24% |  | 25%
7 | CC1(C)Cc2cc(-c3ccc(-c4cn(C5CCC(=O)NC5=O)c(=O)o4)c(F)c3)nc(N)c2O1 (stereo not drawn) [Example 1, 3-(5-(4-(7-amino-2,2-dimethyl-2,3-dihydrofuro[2,3-c]pyridin-5-yl)-2-fluorophenyl)-2-oxooxazol-3(2H)-yl)piperidine-2,6-dione] | 1.51 | 0.022 | 89 | 0.6 | 98 | 0.052 | 51 | 8.23 | 56 | 0.055 | 22 | > 10 | 63% |  | 55%
